Experimental data from patent US6586470B1, “Insecticidal composition” (Ecoval INC, priority 1998, dated 2003).

Test system: Northern corn root worm adults (diabrotica longiscornis)
Test: Spray test on Northern corn root worm adults
Assay type: in vivo
Conditions: insects sprayed, inspected after 24 hours, amounts in grams/litre
Method: The insecticidal compositions being tested were formulated in aqueous solution. The amounts of the ingredients are specified in the examples, and unless stated otherwise, are expressed in grams/litre. The compositions were tested on Northern corn root worm adults (diabrotica longiscornis). The insects were treated and tested as indicated above.

| SMILES | % Control [%] | Alive | Dead | % Control (listed as acetic acid at 50 g/l) | % Control (listed as citric acid at 25 g/l) |
| --- | --- | --- | --- | --- | --- |
| CC(=O)O [Sample 1, acetic acid] | 0 | 10 | 0 | – | – |
| O=C(O)CC(O)(CC(=O)O)C(=O)O [Sample 2, citric acid] | 0 | 10 | 0 | – | – |
| CC(=O)O [Sample 15, acetic acid] | 0 | 10 | 0 | – | – |
| CC(=O)O [Sample 18, acetic acid] | 30 | 7 | 3 | partial control | – |
| O=C(O)CC(O)(CC(=O)O)C(=O)O [Sample 19, citric acid] | 20 | 8 | 2 | – | partial control |
